The values below come from patent US8834423B2, “Dissolvable microneedle arrays for transdermal delivery to human skin” (University of Pittsburgh—of the Commonwealth System of …, priority 2009, dated 2014).

In this assay the test system is epidermal cells. The note with it: 5 mg/g of CMC, pyramidal array applied 5 minutes, 72 hours of exposure. The protocol: This is a therapeutically relevant concentration based on the area of skin targeted, yet well below levels associated with systemic toxicities. […] Arrays and residual material were removed 5 minutes after application, and after 72 hours of exposure, culture living skin explants were cryo-sectioned and fixed.

Turning to `O=P1(N(CCCl)CCCl)NCCCO1` (stereo not shown) [CYTOXAN, cyclophosphamide], the “apoptosis (TUNEL) in skin sections” value is reported as “extensive apoptosis of epidermal cells”.
